The text below walks through data of US20050070719A1, “Inhibitors of dipeptidyl peptidase iv” (priority 2001, published 2005).

Where a name gives a salt, the structure may show the parent alone.

T1 sequence (P14740 37-767 limits assumed): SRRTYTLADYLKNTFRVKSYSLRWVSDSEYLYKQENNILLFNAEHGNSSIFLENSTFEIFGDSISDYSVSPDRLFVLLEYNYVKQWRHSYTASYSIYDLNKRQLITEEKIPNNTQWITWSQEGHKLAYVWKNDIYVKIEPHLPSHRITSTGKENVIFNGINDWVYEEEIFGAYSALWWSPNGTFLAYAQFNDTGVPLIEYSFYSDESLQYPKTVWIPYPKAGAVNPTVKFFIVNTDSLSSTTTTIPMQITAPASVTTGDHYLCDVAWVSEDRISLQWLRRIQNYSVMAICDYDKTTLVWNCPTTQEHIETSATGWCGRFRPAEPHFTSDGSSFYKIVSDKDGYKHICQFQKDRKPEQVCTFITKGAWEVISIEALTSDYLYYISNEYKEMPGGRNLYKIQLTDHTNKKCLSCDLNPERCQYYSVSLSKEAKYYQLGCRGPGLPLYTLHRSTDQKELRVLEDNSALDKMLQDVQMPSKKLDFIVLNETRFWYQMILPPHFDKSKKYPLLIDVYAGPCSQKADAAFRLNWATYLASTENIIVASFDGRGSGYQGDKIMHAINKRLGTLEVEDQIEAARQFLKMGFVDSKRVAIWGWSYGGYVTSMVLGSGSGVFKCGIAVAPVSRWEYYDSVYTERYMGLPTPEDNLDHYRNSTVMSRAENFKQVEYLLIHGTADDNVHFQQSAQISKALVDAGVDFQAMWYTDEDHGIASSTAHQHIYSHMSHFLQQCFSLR

One experiment concerns the target T1, DPP IV (Rattus norvegicus, UniProt P14740).
T1 construct: Add 25 uL of rat plasma or buffer to wells; from tissue; host or cells: rat plasma
Nature of the experiment: Measuring DPP IV inhibition (rat plasma, fluorogenic peptide substrate). As to conditions: substrate H-Gly-Pro-alpha methyl coumarin, 30 min, room temp. It counts as biochemical. Here is the method:
Dilute 1 volume of rat plasma ([…] with sodium citrate) to 2.5 volumes assay buffer (25 mM HEPES, 140 mM NaCl, 1% BSA [added on the day of the assay]; pH 7.8) to yield approximately 350 micrograms total protein/well in a 96-well plate. […] Dilute the peptide substrate (H-Gly-Pro-alpha methyl coumarin, 10 mM stock in 100% DMSO) 1:100 in assay buffer. Compounds of this invention are diluted in 100% DMSO. Add 10 microliter of diluted compounds or DMSO vehicle to wells. Add 25 uL of rat plasma or buffer to wells. Add 25 uL MgCl2 to all wells. Vortex gently for 1 minute, then pre-incubate at room temp for 10 minutes. Start the reaction by adding 50 uL peptide substrate (no vortexing), and incubate the plate at room temp in the dark for 30 minutes. […] Read the plate at 380 nm (excitation) and 460 nm (emission).
As for `N#CC1CCN1C(=O)CNC12CC3CC(CC(C3)C1)C2` (centres unmarked) [Example 18, 1-[2-(adamant-1-ylamino)acetyl]-azetidine-2-carbonitrile], the IC50 was found to be 223 nM.

`N[C@H](C(=O)N1CCCCC1)C1CCCCC1` [Example 8, 1-(L-α-cyclohexylglycyl)piperidine hydrogen chloride]: the IC50 was determined as 22200 nM. This IC50 lies about 100-fold higher than the previous one. On the same count and under the same terms, under `N#CC1CCN1C(=O)C(N)C1CCCCC1` (centres unmarked) [Example 16, 1-(2-amino-2-cyclohexyl-acetyl)azetidine-2-carbonitrile] stands 1200 nM; under `N#C[C@@H]1CC(F)CN1C(=O)C(N)C1CCCCC1` (some centres unmarked) [Example 14, 2-Cyano-4-fluoro-1-cyclohexylglycylpyrrolidine hydrogen chloride], 6.5 nM; under `N#CC1CSCN1C(=O)C1CC2CCCCC2N1` (centres unmarked) [Example 5, 3-(octahydroindole-2-carbonyl)thiazolidine4-carbonitrile hydrochloride], 3.8 nM. The compound `Cl.N#CC1CCN1C(=O)C1CC2CCCCC2N1` (centres unmarked) [Example 20, 1-(octahydroindole-2-carbonyl)azetidine-2-carbonitrile hydrochloride] returned an IC50 of 178 nM. Still for that read-out and setting: the result for `O=C(C1CC2CCCCC2N1)N1CCCC1` (centres unmarked) [Example 10, 1-(octahydroindole-2-carbonyl)pyrrolidine hydrochloride] reads 10000 nM; that for `N[C@H](C(=O)N1CC=CC1)C1CCCCC1` [Example 6, 1-(L-α-cyclohexylglycyl)-3-pyrroline hydrogen chloride], 1880 nM.

`N#CC1CC(F)CN1C(=O)C1CC2CCCCC2N1` (centres unmarked) [Example 3, 2-cyano-4-fluoro-1-(octahydroindole-2-carbonyl)-pyrrolidine hydrogen chloride] came in with an IC50 of 1.65 nM.

As to `Cl.N#CC1CCCN1C(=O)C1CC2CCCCC2N1` (centres unmarked) [Example 1, 1-(octahydroindole-2-carbonyl)pyrrolidine-2-carbonitrile hydrochloride], the IC50 stood at 13.9 nM.

For `N#C[C@@H]1CCCN1C(=O)[C@H]1NCC2CCCCC21` (some centres unmarked) [Example 4, 2-(L)-Cyano-(octahydro-isoindolyl)pyrrolidine hydrogen chloride], 551 nM corresponded to half-maximal inhibition (IC50). Compound `O=C(CNC12CC3CC(CC(C3)C1)C2)N1CCSC1` [Example 12, 1-[2-(adamant-1-ylamino)acetyl]-3-thiopyrrolidine] displayed an IC50 of 4820 nM. As to `N#CC1CCCN1C(=O)C1NCC2CC21` (centres unmarked) [Example 2, 1-(3-azabicyclo[3.1.0]hexane-2-carbonyl)pyrrolidine-2-carbonitrile hydrochloride], the IC50 worked out at 60.7 nM. This IC50 is about 79-fold lower than that of the compound before.

In turn, `CCC(C)[C@H](N)C(=O)N1CC(F)C[C@H]1C#N` (some centres unmarked) [Example 13, 2-cyano-4-fluoro-1-(sec-butyl)glycylpyrrolidine hydrogen chloride] yielded an IC50 of 6.2 nM. Compound `N#CC1CCN1C(=O)C1CCCN1` (centres unmarked) [Example 17, 1-(pyrrolidine-2-carbonyl)azetidine-2-carbonitrile] had an IC50 of 1100 nM.

Another experiment relates to MPTP-lesioned mouse model of Parkinson's disease. The experiment is described as follows: In vivo reinnervation of the denervated striatum by nigrostriatal dopaminergic fibers (MPTP-lesioned mouse model of Parkinson's disease). The conditions noted are these: CD1 mice, MPTP 34 mg/kg i.p. days 1-5; compound 10 mg/kg s.c. once daily days 1-5; analysis day 7. The source says: MPTP (N-methyl-4-phenyl-1,2,3,6-tetrahydropyridine) is a systemically available neurotoxin specific to nigrostriatal dopaminergic neurons, i.e. to the cells that degenerate in human Parkinson's disease. Administration of MPTP to mice leads to a selective partial destruction of the mesotelencephalic dopaminergic projection, and to a loss of dopamine and dopaminergic fibres in the corpus striatum, which is the main forebrain target of midbrain dopaninergic neurons.
Young adult male CD1 albino mice (Harlan-Sprague Dawley; 22-25 g) were dosed i.p. with the dopamine cell-specific neurotoxin N-methyl-4-phenyl-1,2,3,6-tetrahydropyridine (MPTP hydrochloride, calculated as 34 mg/kg free base), dissolved in saline at a concentration of 3.4 mg/ml free base once daily on days one to five. […]
Blinded analysis of TH fiber density in the central striatum was performed at 630× magnification. […] The percentage of sample field covered by TH positive processes and terminals was calculated using an image analysis program (“Simple,” Compix Inc., Pittsburgh, Pa.). The mean striatal innervation density was calculated for each group. The magnitude of striatal deafferentation due to the MPTP lesion was assessed by dividing the observed striatal innervation values obtained in MPTP/vehicle treated cases by the mean striatal innervation density in the Vehicle/Vehicle group and expressed as % loss. […]
With `Cl.N#CC1CCN1C(=O)C1CC2CCCCC2N1` (centres unmarked) [Example 20, 1-(octahydroindole-2-carbonyl)azetidine-2-carbonitrile hydrochloride], the “% protection of striatal tyrosine hydroxylase-immunoreactive fibres” value is 32.6%. Same read-out and setting: the result for `Cl.N#CC1CCCN1C(=O)C1CC2CCCCC2N1` (centres unmarked) [Example 1, 1-(octahydroindole-2-carbonyl)pyrrolidine-2-carbonitrile hydrochloride] reads 32.5%.

In general, IC50 refers to the midpoint of a concentration-inhibition curve. A high value points to lower potency.
